Measurements taken from patent publication US11957758B2, “Pharmaceutical composition of docetaxel conjugate and preparation method” (SHENZHEN SALUBRIS PHARMACEUTICALS CO. LTD, priority 2017, dated 2024).

What was measured:
4T1 breast cancer [1] = experiment: 4T1 breast cancer lung metastasis model of mice, experiment (2); assay type: in vivo, BALB/c mice; details: for increase in breast tumor weight compared with the blank control group / increase in the number of metastatic nodules on the lung surface compared with the blank control group: tail vein once a week for 4 weeks, D28, DTX 5.7 mg/kg, DTX 5.7+MDA-1 4.53 mg/kg, DTX 5.7+MDA-1-linker 4.43 mg/kg; for increase in breast tumor weight compared with the blank control group: FIG. 4A
Method: 0.1 mL 4T1 cells (1.5×10^5/per mouse) were inoculated in the fourth mammary fat pad of female BALB/c mice.
(§1) Grouping and administration: BALB/c mice were inoculated with 4T1 breast cancer cells in the mammary fat pad. The day of inoculation was DO, and mice were administered in groups on the fourth day after inoculation. The experiment consisted of five groups: • (1) solvent control group (blank control group), • (2) IA1 10 mg/kg group, • (3) DTX (Docetaxel) 5.7 mg/kg group, • (4) DTX (5.7 mg/kg)+MDA-1 (4.53 mg/kg) group, • (5) DTX (5.7 mg/kg)+MDA-1-linker (4.43 mg/kg) group. • (3), (4) and (5) are positive control groups.
(§2) Each group had 10 animals. Mice were administered by tail vein injection once a week for 4 weeks. Animal weight and tumor volume were monitored during the administration. Animals were weighed every 2-3 days, and the long diameter and short diameter of breast tumors were measured with a vernier caliper. The tumor size was calculated by the formula: (½)×long diameter×(short diameter)^2. The experiment was terminated on the 28th day (D28). The mice were sacrificed by cervical dislocation after eyeball blood collection. The breast tumor and lung were weighed. The number of metastatic nodules on the lung surface was counted. The results of tumor weight are shown in FIG. 4A, and the results of the number of metastatic nodules on the lung surface are shown in FIG. 4B.

[2] = Stability of IA1 in different pH environments (HPLC main peak purity); assay type: physicochemical
Method: The method for measuring the impurity content in the following examples is as follows, with reference to 0512 liquid chromatography method in the “Chinese Pharmacopoeia” 2015 Edition Volume IV. 20 μl of the system suitability solution, the reference solution, and the test solution are injected into the liquid chromatograph respectively, and the chromatograms are recorded. Calculation formula: each
AT is the peak area of each impurity in the test solution; AS is the average peak area of the main peak in the reference solution; CT is the concentration (mg/ml) of the test solution; Cs is docetaxel conjugate concentration (mg/ml) in the reference solution; F is the correction factor for each impurity.
HPLC conditions: An octadecyl bonded silica gel column (C18, 4.6×150 mm, 3.5 μm); gradient elution, phase A: acetonitrile: 0.1% phosphoric acid=45:55, phase B: acetonitrile; detection wavelength: 225 nm; flow rate: 1.0 ml/min; column temperature: 40° C.

4T1 breast cancer [3] = experiment: 4T1 breast cancer lung metastasis model of mice, experiment (1); assay type: in vivo, BALB/c mice; details: for breast tumor weight compared to the blank control group / number of metastatic nodules on the lung surface compared to the blank control group: tail vein once a week for 4 weeks, D28, IA1 10 mg/kg, DTX 5.7 mg/kg, MDC 10 mg/kg (equimolar); for breast tumor weight compared to the blank control group: FIG. 3A; for number of metastatic nodules on the lung surface compared to the blank control group: FIG. 3B
Method: • (1) Cell culture and tumor inoculation: 4T1 cells were cultured in 1640 medium (Gibco) containing 10% fetal bovine serum (Hyclone Corp, USA), 1% glutamine and 1% penicillin-streptomycin. The 4T1 cells in logarithmic growth phase were collected and the cell concentration was adjusted to 1.5×10^6/mL. 0.1 mL 4T1 cells (1.5×10^5/per mouse) were inoculated in the fourth mammary fat pad of female BALB/c mice.
as §1, with “DO. Mice” for “DO, and mice”, “four” for “five”, “MDC 10 mg/kg” for “DTX (5.7 mg/kg)+MDA-1 (4.53 mg/kg) group, • (5) DTX (5.7 mg/kg)+MDA-1-linker (4.43 mg/kg)”, “(3) and” for “(3),”, “(4)” for “(4) and (5)”
as §2, with “3A,” for “4A,”, “3B.” for “4B.”

4T1 breast cancer [4] = experiment: 4T1 breast cancer lung metastasis model of mice, experiment (3); assay type: in vivo, BALB/c mice; details: for increase in tumor weight compared with the blank control group / increase in tumor volume compared with the blank control group: tail vein once a week for 4 weeks, IA1 5 and 10 mg/kg, DTX 2.85 mg/kg, DTX 2.85+MDA-1 2.26 mg/kg, DTX 2.85+MDA-1-linker 2.21 mg/kg; for increase in tumor weight compared with the blank control group: D28, FIG. 5B; for increase in tumor volume compared with the blank control group: FIG. 5A
Method: […]. Grouping and administration: BALB/c mice were inoculated with 4T1 breast cancer cells in the mammary fat pad. The day of inoculation was DO, and mice were administered in groups on the fourth day after inoculation. The experiment consisted of six groups: • (1) solvent control group (blank control group), • (2) IA1 5 mg/kg group, • (3) IA1 10 mg/kg group, • (4) DTX (Docetaxel) 2.85 mg/kg group, • (5) DTX (2.85 mg/kg)+MDA-1 (2.26 mg/kg) group, • (6) DTX (2.85 mg/kg)+MDA-1-linker (2.21 mg/kg) group. • (4), (5) and (6) are positive control groups.
as §2, with “counted.” for “counted. The results of tumor weight are shown in FIG. 4A, and the results of the number of metastatic nodules on the lung surface are shown in FIG. 4B.”

Compound	increase of inhibitory effect on lung surface metastatic nodules compared with docetaxel+MDA-1 (4T1 breast cancer [1]; IA1 10 mg/kg versus DTX 5.7 mg/kg+MDA-1 4.53 mg/kg) [%]	increase of inhibitory effect on lung surface metastatic nodules compared with docetaxel+MDA-1+linker (4T1 breast cancer [1]; IA1 10 mg/kg versus DTX 5.7 mg/kg+MDA-1-linker 4.43 mg/kg) [%]	difference in the inhibitory effects on lung surface nodules versus positive control groups (4T1 breast cancer [1]; IA1 10 mg/kg, FIG. 4B)	increase in breast tumor weight compared with the blank control group (4T1 breast cancer [1]; IA1 10 mg/kg)	increase in the number of metastatic nodules on the lung surface compared with the blank control group (4T1 breast cancer [1]; IA1 10 mg/kg, FIG. 4B)	Decrease in purity of main peak within 14 h (%) ([2]; Acetonitrile/pH 3.0 buffer)	Decrease in purity of main peak within 14 h (%) ([2]; Acetonitrile/pH 4.0 buffer)	Decrease in purity of main peak within 14 h (%) ([2]; Acetonitrile/pH 5.0 buffer)	Decrease in purity of main peak within 14 h (%) ([2]; Acetonitrile/pH 6.0 buffer)	Decrease in purity of main peak within 14 h (%) ([2]; Acetonitrile/pH 7.0 buffer)	Decrease in purity of main peak within 14 h (%) ([2]; Acetonitrile/pH 8.0 buffer)	inhibitory effects on tumor and cancer metastasis (4T1 breast cancer [3]; same experiment, compared with IA1)	breast tumor weight compared to the blank control group (4T1 breast cancer [3])	number of metastatic nodules on the lung surface compared to the blank control group (4T1 breast cancer [3])	difference in the inhibitory effects on tumor volume and weight versus positive control groups (4T1 breast cancer [4]; IA1 versus docetaxel, docetaxel+MDA-1, docetaxel+MDA-1-linker, FIGS. 5A and 5B)	increase in tumor weight compared with the blank control group (4T1 breast cancer [4])	increase in tumor volume compared with the blank control group (4T1 breast cancer [4])
CC(=O)O[C@@]12CO[C@@H]1C[C@H](O)[C@@]1(C)C(=O)[C@H](O)C3=C(C)[C@@H](OC(=O)[C@H](OC(=O)CCC(=O)NCCCC[C@H](NC(=O)CC[C@@H](NC(=O)[C@H](C)NC(=O)/C=C/c4ccc(F)cc4Cl)C(N)=O)C(=O)O)[C@@H](NC(=O)OC(C)(C)C)c4ccccc4)C[C@@](O)([C@@H](OC(=O)c4ccccc4)[C@H]21)C3(C)C [IA1]	27.9	18.6	significant difference	significantly inhibited	significantly inhibited	0.11	0.19	0.19	0.51	7.38	22.55	the most excellent	significantly inhibited	significantly inhibited	significant difference	significantly inhibited	significantly inhibited
CC(=O)O[C@@]12CO[C@@H]1C[C@H](O)[C@@]1(C)C(=O)[C@H](O)C3=C(C)[C@@H](OC(=O)[C@H](O)[C@@H](NC(=O)OC(C)(C)C)c4ccccc4)C[C@@](O)([C@@H](OC(=O)c4ccccc4)[C@H]21)C3(C)C [docetaxel]				significantly inhibited	significantly inhibited								significantly inhibited	significantly inhibited		significantly inhibited	significantly inhibited
